The numbers were not newly measured in patent US9375525B2, “Modular extracorporeal systems and methods for treating blood-borne diseases” (Somerset Group Enterprises, Inc., priority 2012, dated 2016), which cites them from elsewhere.

One data set concerns pathogens. The conditions noted are these: bactericidal or static.
For another data set, the system named is S. aureus. The conditions noted are these: basic conditions versus slightly acidic conditions.
Another data set relates to Listeria. The conditions noted are these: carbonation volume of about 2, about 35° C., pressure up to about 350 MPa, about 300 seconds.

Where two headings read alike, the source gives them in different places.

Regarding `CN(C)c1cc(NC(=O)CNC(C)(C)C)c(O)c2c1C[C@H]1C[C@H]3[C@H](N(C)C)C(O)=C(C(N)=O)C(=O)[C@@]3(O)C(O)=C1C2=O` [Tigecycline], the activity result with pathogens is “static”.

Turning to `NC[C@H]1O[C@H](O[C@H]2[C@H](O)[C@@H](O[C@H]3O[C@H](CO)[C@@H](O)[C@H](N)[C@H]3O)[C@H](N)C[C@@H]2N)[C@H](N)C[C@@H]1O` [Tobramycin], in the data set on pathogens, the activity entry is on record as “bactericidal”. In addition, the “Issues with Respect to In vivo Toxicity or Side Effects” value (shortened to “Issues”) (in vivo) is “Nephrotoxicity, ototoxicity”.

Consider Polymixin B, for which the activity entry in the data set on pathogens is listed as “bactericidal”. Moreover, the “Issues” value (in vivo) is “due to renal and neurotoxicity”.

Turning to `O=C(O)c1cn(C2CC2)c2cc(N3CCNCC3)c(F)cc2c1=O` [Ciprofloxalin], the activity result with pathogens is given as “bactericidal”.

On to `NCC[C@H](O)C(=O)N[C@@H]1C[C@H](N)[C@@H](O[C@H]2O[C@H](CN)[C@@H](O)[C@H](O)[C@H]2O)[C@H](O)[C@H]1O[C@H]1O[C@H](CO)[C@@H](O)[C@H](N)[C@H]1O` [Amikacin], for which the activity entry in the data set with pathogens is “bactericidal”. For the same molecule, the “Issues” value (in vivo) is given as “Nephrotoxicity, ototoxicity”.

Turning to `CN[C@H](CC(C)C)C(=O)N[C@H]1C(=O)N[C@@H](CC(N)=O)C(=O)N[C@H]2C(=O)N[C@H]3C(=O)N[C@H](C(=O)N[C@H](C(=O)O)c4cc(O)cc(O)c4-c4cc3ccc4O)[C@H](O)c3ccc(c(Cl)c3)Oc3cc2cc(c3O[C@@H]2O[C@H](CO)[C@@H](O)[C@H](O)[C@H]2O[C@H]2C[C@](C)(N)[C@H](O)[C@H](C)O2)Oc2ccc(cc2Cl)[C@H]1O` [vancomycin], the “killing S. aureus” value in the data set on S. aureus was “under basic conditions better than under slightly acidic conditions”.

As to Colistin, the activity entry in the data set on pathogens is reported as “bactericidal”. Further, the “Issues” value (in vivo use) was “Only used as last resort antibiotics”.

On to `CCCCCCCCCC(=O)N[C@@H](Cc1c[nH]c2ccccc12)C(=O)N[C@H](CC(N)=O)C(=O)N[C@@H](CC(=O)O)C(=O)N[C@@H]1C(=O)NCC(=O)N[C@@H](CCCN)C(=O)N[C@@H](CC(=O)O)C(=O)N[C@H](C)C(=O)N[C@@H](CC(=O)O)C(=O)NCC(=O)N[C@H](CO)C(=O)N[C@@H]([C@H](C)CC(=O)O)C(=O)N[C@@H](CC(=O)c2ccccc2N)C(=O)O[C@@H]1C` [Daptomycin], for which, in the data set with pathogens, the activity result is recorded as “bactericidal”.

Turning to `N[C@@H]1[C@H]2CN(c3nc4c(cc3F)c(=O)c(C(=O)O)cn4-c3ccc(F)cc3F)C[C@@H]12` [Trovafloxacin], the activity entry in the data set with pathogens was “bactericidal”. The “Issues” value (in vivo) was “Histamine release, Idiosyncratic”.

As to `O=C=O` [CO2, Carbon dioxide], in the data set on Listeria, the “inactivation of Listeria” value is “enhanced the inactivation”.

Consider Gentamycin, for which the activity entry in the data set on pathogens is reported as “bactericidal”. In addition, the “Issues” value (in vivo use) is on record as “Nephrotoxicity, ototoxicity”.
